Drawing on the supplement of paper PMC9673313, this text covers IC50 growth inhibition for 114 test systems.

Compound in the experiment: Clc1ccc2c(N3CCN(CCCN4CCN(c5ccnc6cc(Cl)ccc56)CC4)CC3)ccnc2c1 [piperaquine]
Here is the method: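 Kenyan Plasmodium falciparum field isolates (2008-2021) were tested in a SYBR Green I growth-inhibition assay, either immediately ex vivo (fresh samples) or in vitro after culture adaptation. Cultures were at 1% parasitemia and 2% hematocrit, incubated with serial drug dilutions for 72 h at 37 °C (5% O2, 5% CO2), then read by fluorescence. IC50 was fitted by non-linear regression of the dose-response curve.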
For the test system KOM 13/11/116, the IC50 growth inhibition worked out at 0.0287 µg/mL.
Regarding 601-226, the IC50 growth inhibition was 0.0572 µg/mL.
With MGT 15/10/104, the IC50 growth inhibition stood at 0.00335 µg/mL.
For the test system MGT 19/11/0063, the IC50 growth inhibition worked out at 0.0136 µg/mL.
In the case of MGT 14/03/0015 it was 0.00779 µg/mL; in that of 601-0140, 0.0251 µg/mL.
As to MDH 10/8/0014, the IC50 growth inhibition is 0.00139 µg/mL.
Regarding KOM 21/08/0327, the IC50 growth inhibition came out at 0.0283 µg/mL.
Next, KDH 21/05/0220: 0.0025 µg/mL; MGT 15/10/105: 0.0197 µg/mL.
Next, KCH 13/1/192: 0.0674 µg/mL; KSI 15/06/786: 0.0146 µg/mL.
Next, KOM 14/04/215: 0.0255 µg/mL.
For the test system MDH 12/01/0063, the IC50 growth inhibition amounted to 0.012 µg/mL.
In the case of KDH 16/07/1829 it was 0.00272 µg/mL; in that of KSI 13/04/334, 0.0195 µg/mL.
Next, MDH 12/01/0062: 0.019 µg/mL; KOM 13/07/0006: 0.0108 µg/mL.
Consider KDH 21/08/0250, for which the IC50 growth inhibition came out at 0.0617 µg/mL.
Take KSI 13/10/430: the IC50 growth inhibition is 0.00784 µg/mL.
For KDH 13/09/1180, the IC50 growth inhibition is 0.00678 µg/mL.
In the case of KOM 19/12/0149 it was 0.0283 µg/mL.
Turning to KDH 20/01/0163, the IC50 growth inhibition came out at 0.0245 µg/mL.
Next, KSI 16/06/900: 0.0333 µg/mL; KOM 19/11/0147: 0.0105 µg/mL.
In the case of KOM 20/02/0179 it was 0.0157 µg/mL.
In the case of KOM 21/03/0256 it was 0.0026 µg/mL; in that of KSI 12/06/270, 0.0175 µg/mL.
Take KOM 13/07/0007: the IC50 growth inhibition came out at 0.00616 µg/mL.
With KOM 13/10/0073 D28/0, the IC50 growth inhibition was found to be 0.015 µg/mL.
For 601-0163, the IC50 growth inhibition worked out at 0.022 µg/mL.
As for KDH 12/10/909, the IC50 growth inhibition came out at 0.00983 µg/mL.
Next, KOM 16/07/0611: 0.0143 µg/mL.
KSI 13/05/346: the IC50 growth inhibition was 0.0502 µg/mL.
With KCH 10/06/120, the IC50 growth inhibition was determined as 0.163 µg/mL.
On to KCH 10/05/113, for which the IC50 growth inhibition is 0.00858 µg/mL.
For the test system KOM 21/05/0277, the IC50 growth inhibition is 0.0353 µg/mL.
In the case of KOM 21/05/0271 it was 0.0021 µg/mL; in that of MDH 19/12/0045, 0.0302 µg/mL; in that of KOM 15/05/416, 0.00162 µg/mL.
With KDH 15/06/1658, the IC50 growth inhibition was 0.0205 µg/mL.
Turning to KCH 10/05/108, the IC50 growth inhibition stood at 0.0451 µg/mL.
In the case of KOM 21/05/0272 it was 0.0037 µg/mL; in that of KDH 21/08/0254, 0.0379 µg/mL.
Next, KSI 15/04/732: 0.0061 µg/mL.
In the case of KSI 10/9/111 it was 0.284 µg/mL; in that of MGT 19/09/0057, 0.0297 µg/mL.
For the test system KOM 13/08/0025, the IC50 growth inhibition was 0.0147 µg/mL.
In the case of KDH 16/07/1831 it was 0.0278 µg/mL; in that of KOM 21/03/0202, 0.003 µg/mL; in that of KCH 17/09/372, 0.00845 µg/mL.
Next, KOM 13/07/0010: 0.00114 µg/mL; KDH 16/07/1826: 0.0257 µg/mL.
Consider KSI 15/06/782, for which the IC50 growth inhibition was determined as 0.0255 µg/mL.
On to KDH 20/01/0166, for which the IC50 growth inhibition is 0.0768 µg/mL.
As to KOM 21/03/0254, the IC50 growth inhibition stood at 0.0021 µg/mL.
Next, KSI 19/06/0027: 0.00354 µg/mL; KOM 20/01/0172: 0.0184 µg/mL.
With MGT 19/09/0054, the IC50 growth inhibition turned out to be 0.0326 µg/mL.
In the case of 601-0154, the IC50 growth inhibition stood at 0.0252 µg/mL.
In the case of KSI 14/08/627 it was 0.00419 µg/mL.
In the case of KOM 13/10/0089 it was 0.0186 µg/mL.
On to 601-292, for which the IC50 growth inhibition stood at 0.0322 µg/mL.
In the case of KOM 21/03/267 it was 0.0023 µg/mL.
Regarding KOM 20/01/0168, the IC50 growth inhibition is 0.0157 µg/mL.
Next, KCH 14/10/281: 0.00857 µg/mL.
Next, MGT 14/03/0012: 0.00831 µg/mL.
Next, KOM 20/02/0178: 0.00832 µg/mL.
MGT 18/09/0013: the IC50 growth inhibition was determined as 0.00348 µg/mL.
As for KSI 9/06/0001, the IC50 growth inhibition came out at 0.504 µg/mL.
Next, 601-0284: 0.0176 µg/mL.
Turning to KOM 14/06/270, the IC50 growth inhibition was found to be 0.0171 µg/mL.
Next, KOM 19/01/0053: 0.0191 µg/mL.
In the case of 601-257, the IC50 growth inhibition was determined as 0.112 µg/mL.
As for KOM 21/05/0265, the IC50 growth inhibition worked out at 0.0027 µg/mL.
Next, KOM 13/11/104: 0.0175 µg/mL; KCH 11/05/145: 0.012 µg/mL.
In the case of KCH 17/09/374 it was 0.00492 µg/mL.
In the case of KDH 14/05/1396 it was 0.0267 µg/mL.
In the case of KOM 15/05/421 D42, the IC50 growth inhibition worked out at 0.0404 µg/mL.
Next, KSI 10/09/099: 0.0338 µg/mL; 601-0189: 0.0275 µg/mL; MGT 17/11/133: 0.00335 µg/mL.
In the case of KOM 20/03/0184 it was 0.0308 µg/mL; in that of KCH 13/9/226, 0.0268 µg/mL; in that of KCH19/06/0013, 0.0146 µg/mL.
In the case of KSI 16/07/912 it was 0.0151 µg/mL; in that of KDH 16/07/1821, 0.0191 µg/mL; in that of KSI 13/06/360, 0.00681 µg/mL.
Consider KSI 14/04/534, for which the IC50 growth inhibition is 0.00127 µg/mL.
On to MGT 21/05/0116, for which the IC50 growth inhibition worked out at 0.0046 µg/mL.
Take KOM 18/07/0004: the IC50 growth inhibition was found to be 0.0101 µg/mL.
Consider MGT 18/08/0004, for which the IC50 growth inhibition worked out at 0.00164 µg/mL.
Consider MGT 21/08/0122, for which the IC50 growth inhibition came out at 0.0872 µg/mL.
Next, KSI 12/08/285: 0.0196 µg/mL.
In the case of 601-262 it was 0.112 µg/mL; in that of KCH 18/09/0003, 0.0047 µg/mL.
For 601-0031, the IC50 growth inhibition was 0.0161 µg/mL.
Next, KCH 19/04/0010: 0.00314 µg/mL.
Next, 601-209: 0.0646 µg/mL; 601-0132: 0.0171 µg/mL.
Turning to KDH 21/02/0166, the IC50 growth inhibition is 0.0768 µg/mL.
Take KOM 21/08/0344: the IC50 growth inhibition came to 0.0249 µg/mL.
In the case of KOM 21/02/0228 it was 0.0626 µg/mL; in that of KSI 14/03/507, 0.00669 µg/mL; in that of KSI 12/01/224, 0.0193 µg/mL.
In the case of MDH 16/05/150, the IC50 growth inhibition amounted to 0.00167 µg/mL.
With KDH 19/12/0156, the IC50 growth inhibition worked out at 0.0196 µg/mL.
As for MGT 21/08/0109, the IC50 growth inhibition stood at 0.0004 µg/mL.
On to KCH 10/06/0122, for which the IC50 growth inhibition came to 0.069 µg/mL.
In the case of KSI 13/3/323 it was 0.0287 µg/mL.
In the case of KDH 21/02/0197, the IC50 growth inhibition was determined as 0.0184 µg/mL.
Consider KDH 11/10/728, for which the IC50 growth inhibition was determined as 0.105 µg/mL.
KOM 18/11/0045: the IC50 growth inhibition came out at 0.00771 µg/mL.
